Test system: Recombinant Coprinus cinereus laccase (rCcL)
Test: Bleaching of methyl orange using rCcL and NOH-type enhancing agents (initial bleaching rate)
Type: biochemical
Conditions: pH 4; rCcL solution diluted 1:200; 0.2 mM mediator; 30° C.; large negative numbers = best performance
Method: (§1) Britton-Robinson buffer is composed of:
(§2) Methyl orange (Merck, Germany)
(§3) Reactions were started by addition of enzyme. Absorbance at 464 nm was followed for 3 minutes (readings every 5 seconds) on a Cobas Fara at 30° C. Initial bleaching rates were determined from the first linear part of the progress curves.
(§4) The N—OH compounds listed above were tested as laccase mediators in bleaching of methyl orange with three recombinant laccases (rPpL, rMtL and rCcL) at various pH values. Large negative numbers represent the best performance.

Compound	Initial changes per minute in A464 nm of methyl orange using rCcL [per minute]
ON=C(c1ccccn1)c1ccccn1 [di-2-pyridylketone oxime]	−0.004
CCOc1ccc(N=[N+]([O-])c2ccc(OCC)cc2)cc1 [p,p′-azoxydiphenetole, p,p′-Azoxydiphenetole]	0.116

Same assay, conditions: pH 5; rCcL solution diluted 1:200; 0.2 mM mediator; 30° C.; large negative numbers = best performance

Compound	Initial changes per minute in A464 nm of methyl orange using rCcL [per minute]
ON=C(c1ccccn1)c1ccccn1 [di-2-pyridylketone oxime]	−0.006
CCOc1ccc(N=[N+]([O-])c2ccc(OCC)cc2)cc1 [p,p′-azoxydiphenetole, p,p′-Azoxydiphenetole]	0.196

Same assay, conditions: pH 6; rCcL solution diluted 1:200; 0.2 mM mediator; 30° C.; large negative numbers = best performance

Compound	Initial changes per minute in A464 nm of methyl orange using rCcL [per minute]
ON=C(c1ccccn1)c1ccccn1 [di-2-pyridylketone oxime]	−0.008
CCOc1ccc(N=[N+]([O-])c2ccc(OCC)cc2)cc1 [p,p′-azoxydiphenetole, p,p′-Azoxydiphenetole]	0.002

Same assay, conditions: pH 7; rCcL solution diluted 1:200; 0.2 mM mediator; 30° C.; large negative numbers = best performance

Compound	Initial changes per minute in A464 nm of methyl orange using rCcL [per minute]
ON=C(c1ccccn1)c1ccccn1 [di-2-pyridylketone oxime]	−0.006
CCOc1ccc(N=[N+]([O-])c2ccc(OCC)cc2)cc1 [p,p′-azoxydiphenetole, p,p′-Azoxydiphenetole]	0.008

Same assay, conditions: pH 8; rCcL solution diluted 1:200; 0.2 mM mediator; 30° C.; large negative numbers = best performance

Compound	Initial changes per minute in A464 nm of methyl orange using rCcL [per minute]
ON=C(c1ccccn1)c1ccccn1 [di-2-pyridylketone oxime]	−0.001
CCOc1ccc(N=[N+]([O-])c2ccc(OCC)cc2)cc1 [p,p′-azoxydiphenetole, p,p′-Azoxydiphenetole]	0.019

Test system: Recombinant Myceliophthora thermophila laccase (rMtL)
Test: Bleaching of methyl orange using rMtL and NOH-type enhancing agents (initial bleaching rate)
Type: biochemical
Conditions: pH 4; rMtL solution diluted 1:300; 0.2 mM mediator; 30° C.; large negative numbers = best performance
Method: as §1, §2, §3, §4

Compound	Initial changes per minute in A464 nm of methyl orange using rMtL [per minute]
ON=C(c1ccccn1)c1ccccn1 [di-2-pyridylketone oxime]	−0.026
CCOc1ccc(N=[N+]([O-])c2ccc(OCC)cc2)cc1 [p,p′-azoxydiphenetole, p,p′-Azoxydiphenetole]	0.019

Same assay, conditions: pH 5; rMtL solution diluted 1:300; 0.2 mM mediator; 30° C.; large negative numbers = best performance

Compound	Initial changes per minute in A464 nm of methyl orange using rMtL [per minute]
ON=C(c1ccccn1)c1ccccn1 [di-2-pyridylketone oxime]	−0.010
CCOc1ccc(N=[N+]([O-])c2ccc(OCC)cc2)cc1 [p,p′-azoxydiphenetole, p,p′-Azoxydiphenetole]	0.086

Same assay, conditions: pH 6; rMtL solution diluted 1:300; 0.2 mM mediator; 30° C.; large negative numbers = best performance

Compound	Initial changes per minute in A464 nm of methyl orange using rMtL [per minute]
ON=C(c1ccccn1)c1ccccn1 [di-2-pyridylketone oxime]	−0.001
CCOc1ccc(N=[N+]([O-])c2ccc(OCC)cc2)cc1 [p,p′-azoxydiphenetole, p,p′-Azoxydiphenetole]	0.012

Same assay, conditions: pH 7; rMtL solution diluted 1:300; 0.2 mM mediator; 30° C.; large negative numbers = best performance

Compound	Initial changes per minute in A464 nm of methyl orange using rMtL [per minute]
ON=C(c1ccccn1)c1ccccn1 [di-2-pyridylketone oxime]	0.001
CCOc1ccc(N=[N+]([O-])c2ccc(OCC)cc2)cc1 [p,p′-azoxydiphenetole, p,p′-Azoxydiphenetole]	0.020

Biological target: T1, Polyporus pinsitus laccase (Trametes villosa, UniProt Q99044)
T1 construct: made in house
T1 sequence (Q99044 22-520): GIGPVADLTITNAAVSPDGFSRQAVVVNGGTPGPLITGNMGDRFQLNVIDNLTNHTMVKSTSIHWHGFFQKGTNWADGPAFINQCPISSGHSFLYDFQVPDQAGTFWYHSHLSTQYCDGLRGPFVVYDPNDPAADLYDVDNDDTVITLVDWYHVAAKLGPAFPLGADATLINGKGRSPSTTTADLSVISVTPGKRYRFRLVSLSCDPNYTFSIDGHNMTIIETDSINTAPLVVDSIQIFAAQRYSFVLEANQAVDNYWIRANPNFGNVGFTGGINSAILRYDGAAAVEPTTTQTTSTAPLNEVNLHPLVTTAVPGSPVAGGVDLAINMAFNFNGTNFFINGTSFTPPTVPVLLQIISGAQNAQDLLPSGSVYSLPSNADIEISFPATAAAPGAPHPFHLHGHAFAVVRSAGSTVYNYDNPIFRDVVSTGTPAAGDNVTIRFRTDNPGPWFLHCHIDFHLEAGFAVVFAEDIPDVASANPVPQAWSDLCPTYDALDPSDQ
Test: Bleaching of methyl orange using rPpL and NOH-type enhancing agents (initial bleaching rate)
Type: biochemical
Conditions: pH 4; rPpL solution diluted 1:200; 0.2 mM mediator; 30° C.; large negative numbers = best performance
Method: as §1, §2, §3, §4

Compound	Initial changes per minute in A464 nm of methyl orange using rPpL [per minute]
ON=C(c1ccccn1)c1ccccn1 [di-2-pyridylketone oxime]	−0.124
CCOc1ccc(N=[N+]([O-])c2ccc(OCC)cc2)cc1 [p,p′-azoxydiphenetole, p,p′-Azoxydiphenetole]	0.121

Same assay, conditions: pH 5; rPpL solution diluted 1:200; 0.2 mM mediator; 30° C.; large negative numbers = best performance

Compound	Initial changes per minute in A464 nm of methyl orange using rPpL [per minute]
ON=C(c1ccccn1)c1ccccn1 [di-2-pyridylketone oxime]	−0.107
CCOc1ccc(N=[N+]([O-])c2ccc(OCC)cc2)cc1 [p,p′-azoxydiphenetole, p,p′-Azoxydiphenetole]	0.013

Same assay, conditions: pH 6; rPpL solution diluted 1:200; 0.2 mM mediator; 30° C.; large negative numbers = best performance

Compound	Initial changes per minute in A464 nm of methyl orange using rPpL [per minute]
ON=C(c1ccccn1)c1ccccn1 [di-2-pyridylketone oxime]	−0.053
CCOc1ccc(N=[N+]([O-])c2ccc(OCC)cc2)cc1 [p,p′-azoxydiphenetole, p,p′-Azoxydiphenetole]	0.017

Same assay, conditions: pH 7; rPpL solution diluted 1:200; 0.2 mM mediator; 30° C.; large negative numbers = best performance

Compound	Initial changes per minute in A464 nm of methyl orange using rPpL [per minute]
ON=C(c1ccccn1)c1ccccn1 [di-2-pyridylketone oxime]	−0.005
CCOc1ccc(N=[N+]([O-])c2ccc(OCC)cc2)cc1 [p,p′-azoxydiphenetole, p,p′-Azoxydiphenetole]	0.018

Biological target: T1, Polyporus pinsitus laccase
Test: Bleaching of methyl orange with laccase and -NOH-CO- type mediators (microtitre plate, end-point absorbance)
Type: biochemical
Conditions: laccase, pH 4-6
Method: Polyporus pinsitus laccase as described in Example 1.
as §2
50 μl 0.1 mg/ml methyl orange
125 μl 0.1 M Britton-Robinson buffer (see example 1)
25 μl 2 mM mediator or water (as reference)
50 μl laccase dilution (1:400)
Methyl orange, buffer and mediator are mixed in a microtitre plate and the reaction is started by addition of laccase. Absorbance is measured at 450 nm after 15 min.
N-Hydroxyacetanilide and N-(4-cyanophenyl)-N-hydroxyacetamide were tested as mediators in bleaching of methyl orange with a laccase at pH 4-6. Low values represent the best performance.

Compound	bleaching a dye in solution, result in words
CC(=O)N(O)c1ccc(C#N)cc1 [N-(4-cyanophenyl)-N-hydroxyacetamide]	as effective as N-Hydroxyacetanilide

Same assay, conditions: pH 4, laccase dilution 1:400, low values = best performance

Compound	Absorbance measured at 450 nm after 15 minutes
CC(=O)N(O)c1ccc(C#N)cc1 [N-(4-cyanophenyl)-N-hydroxyacetamide]	0.065

Same assay, conditions: pH 5, laccase dilution 1:400, low values = best performance

Compound	Absorbance measured at 450 nm after 15 minutes
CC(=O)N(O)c1ccc(C#N)cc1 [N-(4-cyanophenyl)-N-hydroxyacetamide]	0.055

Same assay, conditions: pH 6, laccase dilution 1:400, low values = best performance

Compound	Absorbance measured at 450 nm after 15 minutes
CC(=O)N(O)c1ccc(C#N)cc1 [N-(4-cyanophenyl)-N-hydroxyacetamide]	0.083

Source: patent publication US6399561B1, “Methods and compositions for bleaching a dye in solution” (Novozymes A/S, priority 1998, dated 2002)
